From patent US8076286B2, “Antimicrobial peptides and use thereof” (priority 2006, dated 2011)
Ends that are not written are not given here.

What was measured:
E.coli ATCC 25922 = assay: Radial diffusion assay (RDA), E. coli; assay type: cell-based, Escherichia coli; conditions: zone of bacterial clearance in RDA; unit mm only in FIG. 1 legend, not in Table 2A
Protocol: (§1) Escherichia coli ATCC25922, Pseudomonas aeruginosa ATCC27853, Staphylococcus aureus ATCC29213, Bacillus subtilis ATCC6633 bacterial isolates, and the fungal isolate Candida albicans ATCC90028, were obtained from the Department of Bacteriology, Lund University Hospital.
(§2) Radial diffusion assays (RDA) were performed essentially as described earlier (Lehrer, R. I., Rosenman, M., Harwig, S. S., Jackson, R. & Eisenhauer, P. (1991) Ultrasensitive assays for endogenous antimicrobial polypeptides, J Immunol Methods. 137, 167-73.).
(§3) Briefly, bacteria (E. coli, P. aeruginosa, S. aureus, B. subtilis) or fungi (C. albicans) were grown to mid-logarithmic phase in 10 ml of full-strength (3% w/v) trypticase soy broth (TSB) (Becton-Dickinson, Cockeysville, Md.). The microorganisms were washed once with 10 mM Tris, pH 7.4. 4×10^6 bacterial cfu or 1×10^5 fungal cfu was added to 5 ml of the underlay agarose gel, consisting of 0.03% (w/v) TSB, 1% (w/v) low-electroendoosmosistype (Low-EEO) agarose (Sigma, St Louise Mo.) and a final concentration of 0.02% (v/v) Tween 20 (Sigma). The underlay was poured into a Ø85 mm petri dish. After agarose solidified, 4 mm-diameter wells were punched and 6 μl of test sample was added to each well. Plates were incubated at 37° C. for 3 hours to allow diffusion of the peptides. […]

S.aureus ATCC 29213 = assay: Radial diffusion assay (RDA), S. aureus; assay type: cell-based, Staphylococcus aureus; conditions: zone of bacterial clearance in RDA; unit mm only in FIG. 1 legend, not in Table 2A
Protocol: as §1, §2, §3

[1] = Antimicrobial activity stated in text, microorganism not specified; assay type: cell-based; conditions: statement in words, no organism or method given
[2] = Liposome leakage assay (carboxyfluorescein), PA liposomes; assay type: biochemical; conditions: dioleoylphosphatidylcholine 30/dioleoylphosphatidic acid 30/cholesterol 40 mol % liposomes, unit not in table; for CF leakage PA + NaCl: 10 mM Tris pH 7.4, with 150 mM NaCl; for CF leakage PA − NaCl: 10 mM Tris pH 7.4, without NaCl
Protocol: (§4) Dry lipid films were prepared by dissolving either dioleoylphosphatidylcholine (Avanti Polar Lipids, Alabaster, Ala.) (60 mol %) and cholesterol (Sigma, St Louis, Mo.) (40 mol %), or dioleoylphosphatidylcholine (30 mol %), dioleoylphosphatidic acid (Avanti Polar Lipids, Alabaster, Ala.) (30 mol %) and cholesterol (40 mol %) in chloroform, and then removing the solvent by evaporation under vacuum overnight. Subsequently, buffer solution containing 10 mM Tris, pH 7.4, either with or without additional 150 mM NaCl, was added together with 0.1 M carboxyfluorescein (CF) (Sigma, St Louis, Mo.). After hydration, the lipid mixture was subjected to eight freeze-thaw cycles consisting of freezing in liquid nitrogen and heating to 60° C. Unilamellar liposomes with a diameter of about 130 nm (as found with cryo-TEM; results not shown) were generated by multiple extrusions through polycarbonate filters (pore size 100 nm) mounted in a LipoFast miniextruder (Avestin, Ottawa, Canada). Untrapped carboxyfluorescein was then removed by filtration through two subsequent Sephadex G-50 columns with the relevant Tris buffer as eluent. Both extrusion and filtration was performed at 22° C. In the liposome leakage assay, the well known self-quenching of CF was used. Thus, at 100 mM CF is self-quenched, and the recorded fluorescence intensity from liposomes with entrapped CF is low. […] The CF release was determined by monitoring the emitted fluorescence at 520 nm from a liposome dispersion, ([…] in 10 mM Tris pH 7.4). An absolute leakage scale is obtained by disrupting the liposomes at the end of the experiment through addition of 0.8 mM Triton X100 (Sigma, St Louis, Mo.), thereby causing 100% release and dequenching of CF. A SPEX-fluorolog 1650 0.22-m double spectrometer (SPEX Industries, Edison, N.J.) was used for the liposome leakage assay (see Table 3, FIG. 3).

[3] = Liposome leakage assay (carboxyfluorescein), PC liposomes; assay type: biochemical; conditions: dioleoylphosphatidylcholine 60 mol %/cholesterol 40 mol % liposomes, scale 100% = Triton X100 release, unit not in table; for CF leakage PC + NaCl: 10 mM Tris pH 7.4, with 150 mM NaCl; for CF leakage PC − NaCl: 10 mM Tris pH 7.4, without NaCl
Protocol: as §4

[4] = CD-spectroscopy, helical content; assay type: physicochemical; conditions: 10 mM Tris, pH 7.4, 37° C., peptide 10 μM; for Helical content, PA: PA liposome dispersion; for Helical content, PA / Helical content, PC: lipid 100 μM; for Helical content, PC: PC liposome dispersion; for Helical content, Buffer: buffer only
Protocol: The CD spectra of the peptides in solution were measured on a Jasco J-810 Spectropolarimeter (Jasco, U.K.). The measurements were performed at 37° C. in a 10 mm quartz cuvet under stirring and the peptide concentration was 10 μM. The effect of on peptide secondary structure of liposomes at a lipid concentration of 100 μM was monitored in the range 200-250 nm. The only peptide conformations observed under the conditions investigated were α-helix and random coil. The fraction of the peptide in α-helical conformation, Xα, is calculated from Xα=(A−Ac)/(Aα−Ac) (1)
where A is the recorded CD signal at 225 nm, and Aα and Ac are the CD signal at 225 nm for a reference peptide in 100% α-helix and 100% random coil conformation, respectively. 100% α-helix and 100% random coil references were obtained from 0.133 mM (monomer concentration) poly-L-lysine in 0.1 M NaOH and 0.1 M HCl, respectively. To account for the instrumental differences between measurements the background value (detected at 250 nm, where no peptide signal is present) was subtracted. Signals from the bulk solution were also corrected for (see Table 4).

Erythrocytes = assay: Hemolysis assay; assay type: cell-based; conditions: % of Triton X-100 induced hemolysis; 1 h at 37° C.; peptides 3-60 μM, concentration for table not stated
Protocol: EDTA-blood was centrifuged at 800 g for 10 min, whereafter plasma and buffy coat were removed. The erythrocytes were washed three times and resuspended in 5% PBS, pH 7.4. The cells were then incubated with end-over-end rotation for 1 h at 37° C. in the presence of peptides (3-60 μM). 2% Triton X-100 (Sigma-Aldrich) served as positive control. The samples were then centrifuged at 800 g for 10 min. The absorbance of hemoglobin release was measured at λ 540 nm and is in the plot expressed as % of TritonX-100 induced hemolysis (FIG. 2).

Molecule | Bacteria E.coli ATCC 25922 Mean (E.coli ATCC 25922) | Bacteria S.aureus ATCC 29213 Mean (S.aureus ATCC 29213) | antimicrobial effect [1] | CF leakage PA + NaCl [2] | CF leakage PA − NaCl [2] | CF leakage PC + NaCl [3] | CF leakage PC − NaCl [3] | Helical content, PA [4] | Helical content, PC [4] | Helical content, Buffer [4] | Erythrocytes Hemolysis (%) Mean (Erythrocytes)
CC(C)C[C@H](NC(=O)[C@H](Cc1c[nH]c2ccccc12)NC(=O)[C@H](CCCCN)NC(=O)[C@H](CCCCN)NC(=O)[C@H](CC(C)C)NC(=O)[C@H](CCCNC(=N)N)NC(=O)[C@H](Cc1ccccc1)NC(=O)[C@@H](N)CC(C)C)C(=O)N[C@@H](CCC(N)=O)C(=O)N[C@@H](CCCCN)C(=O)N[C@H](C(=O)N[C@H](C(=O)N[C@@H](CCCCN)C(=O)N[C@@H](CCC(N)=O)C(=O)N[C@@H](Cc1ccccc1)C(=O)NCC(=O)N[C@@H](CCC(=O)O)C(=O)O)[C@@H](C)O)C(C)C [SEQ ID NO:34, LFRIKKWLQKVTKQFGE] | 6.65 mm | 4.75 mm |  |  |  |  |  |  |  |  | 
LFRLKKWIRKVTRLFG [SEQ ID NO:9, LFRLKKWIRKVTRLFG] | 11.03 mm | 8.59 mm | displayed antimicrobial activity |  |  |  |  |  |  |  | 
NWRENLDRDIALMKLKKP (listed as Homo sapiens) [NVR18] |  |  |  | 0 ± 1% | 2 ± 1% | 0 ± 1% | 4 ± 1% |  |  |  | 
GKYGIYTKVSRYVNWIKEKTKLT (listed as Homo sapiens) [GKY23, FA9_HUMAN aa 439-461] |  |  |  | 30 ± 5% | 86 ± 4% | 19 ± 1% | 86 ± 7% | 29 ± 2% | 21 ± 2% | 7 ± 2% | 
SEKTLRKWLKMFKKRQLELY (listed as Homo sapiens) [SEK20] |  |  |  | 16 ± 1% | 64 ± 2% | 17 ± 5% | 98 ± 2% | 38 ± 4% | 34 ± 4% | 14 ± 2% | 
CC[C@H](C)[C@H](NC(=O)[C@H](CCCCN)NC(=O)[C@H](CCC(=O)O)NC(=O)[C@H](CCCCN)NC(=O)[C@H](CO)NC(=O)[C@H](CCCCN)NC(=O)[C@H](CCCNC(=N)N)NC(=O)[C@H](Cc1ccccc1)NC(=O)[C@H](Cc1ccccc1)NC(=O)[C@H](CC(=O)O)NC(=O)CNC(=O)[C@H](CC(C)C)NC(=O)[C@@H](N)CC(C)C)C(=O)NCC(=O)N[C@@H](CCCCN)C(=O)N[C@@H](CCC(=O)O)C(=O)N[C@@H](Cc1ccccc1)C(=O)N[C@@H](CCCCN)C(=O)N[C@@H](CCCNC(=N)N)C(=O)N[C@H](C(=O)N[C@H](C(=O)N[C@@H](CCC(N)=O)C(=O)N[C@@H](CCCNC(=N)N)C(=O)N[C@H](C(=O)N[C@@H](CCCCN)C(=O)N[C@@H](CC(=O)O)C(=O)N[C@@H](Cc1ccccc1)C(=O)N[C@@H](CC(C)C)C(=O)N[C@@H](CCCNC(=N)N)C(=O)N[C@@H](CC(N)=O)C(=O)N[C@@H](CC(C)C)C(=O)N[C@H](C(=O)N1CCC[C@H]1C(=O)N[C@@H](CCCNC(=N)N)C(=O)N[C@H](C(=O)N[C@@H](CCC(=O)O)C(=O)N[C@@H](CO)C(=O)O)[C@@H](C)O)C(C)C)[C@@H](C)CC)C(C)C)[C@@H](C)CC [LL-37] |  |  |  |  |  |  |  |  |  |  | 16.43%
CQKRYRGHKITHKMIC (listed as Homo sapiens) [CQK16, FA11_HUMAN aa 545-560] |  |  |  | 15 ± 2% | 18 ± 5% | 14 ± 4% | 64 ± 3% | 8 ± 2% | 10 ± 2% | 10 ± 2% | 
